# Results taken from article PMC10878344 (Journal of Enzyme Inhibition and Medicinal Chemistry, 2024).
# Entries after “also recorded” stand apart in the source; their conditions may differ.
# Columns and labels:
# [1] = target: huBuChE (Homo sapiens, UniProt P06276); assay: huBuChE inhibition, modified Ellman's method; type: biochemical
# [2] = tested on: LPS-induced NO production of mouse microglia cells (BV-2); assay: LPS-induced NO production in BV-2 microglia; type: cell-based; settings: for NO production: 10 μM compound, LPS-induced BV-2 cells; for inhibition at 10 µM: Mus musculus, BV-2, read-out: NO inhibition
# [3] = target: eeAChE (Electrophorus electricus, UniProt O42275); assay: eeAChE inhibition, modified Ellman's method; type: biochemical, electric eel
# Chain of eeAChE (O42275 24-633): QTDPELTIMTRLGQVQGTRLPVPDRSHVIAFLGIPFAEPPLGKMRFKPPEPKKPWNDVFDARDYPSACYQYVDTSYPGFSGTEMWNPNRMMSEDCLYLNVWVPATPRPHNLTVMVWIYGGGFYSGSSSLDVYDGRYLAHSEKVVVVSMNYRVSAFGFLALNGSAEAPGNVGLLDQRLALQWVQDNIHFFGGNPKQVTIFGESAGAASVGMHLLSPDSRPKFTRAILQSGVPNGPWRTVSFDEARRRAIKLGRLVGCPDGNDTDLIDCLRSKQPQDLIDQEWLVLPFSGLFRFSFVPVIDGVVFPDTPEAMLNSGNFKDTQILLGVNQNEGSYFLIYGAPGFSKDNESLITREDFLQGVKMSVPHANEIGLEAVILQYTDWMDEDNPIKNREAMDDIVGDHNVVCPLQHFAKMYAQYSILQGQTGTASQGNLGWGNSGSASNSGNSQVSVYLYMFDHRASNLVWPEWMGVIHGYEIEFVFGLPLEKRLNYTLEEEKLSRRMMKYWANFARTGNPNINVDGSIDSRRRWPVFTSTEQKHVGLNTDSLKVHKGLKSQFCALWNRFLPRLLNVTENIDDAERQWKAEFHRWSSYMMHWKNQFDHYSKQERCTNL
# [4] = target: T1, eqBuChE (Equus caballus, UniProt P81908); assay: eqBuChE inhibition, modified Ellman's method; type: biochemical, equine
# T1 sequence (P81908 whole entry): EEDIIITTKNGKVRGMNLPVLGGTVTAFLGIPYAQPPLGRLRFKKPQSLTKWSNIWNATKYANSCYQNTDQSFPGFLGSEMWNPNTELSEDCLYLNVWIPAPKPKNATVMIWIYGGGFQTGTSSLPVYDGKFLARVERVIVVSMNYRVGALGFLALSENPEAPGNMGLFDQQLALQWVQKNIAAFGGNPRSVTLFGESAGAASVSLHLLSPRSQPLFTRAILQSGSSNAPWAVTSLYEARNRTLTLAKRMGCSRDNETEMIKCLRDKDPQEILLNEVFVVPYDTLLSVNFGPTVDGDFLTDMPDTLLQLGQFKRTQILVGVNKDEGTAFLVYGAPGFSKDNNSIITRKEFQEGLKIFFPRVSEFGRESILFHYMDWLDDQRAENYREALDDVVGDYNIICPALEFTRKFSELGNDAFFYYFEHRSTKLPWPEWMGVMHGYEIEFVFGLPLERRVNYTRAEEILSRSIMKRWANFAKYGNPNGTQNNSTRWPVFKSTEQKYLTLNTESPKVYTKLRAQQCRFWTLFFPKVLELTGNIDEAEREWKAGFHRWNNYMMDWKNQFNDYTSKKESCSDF
# [5] = PAMPA-BBB in vitro blood-brain barrier permeation assay; settings: for Papp at 10 h, 25 μg/mL: pH 7.4; for CNS (±): PAMPA-BBB classification from Pe
# [6] = PAMPA-BBB reported values; ref [35],[36]; cited from earlier work
# [7] = tested on: scopolamine-induced cognitive impairment mouse model; assay: Morris water maze test in scopolamine-induced cognitive impairment mouse model; type: in vivo, C57BL/6J mice; settings: scopolamine 5 mg/kg i.p.; for escape latency to the platform: fifth day of training trials; for number of crossing the platform: last day without platform
# [8] = tested on: BV-2 cells; assay: BV-2 cell viability; settings: 10 μM, MTT, 24 h
# [9] = tested on: ICR mice; assay: Acute toxicity test; settings: ICR mice
# [10] = Acute toxicity test; settings: both, ICR, mouse, in vivo, po, 1000 mg/kg
# [11] = target: T1, eqBuChE; assay: Kinetics of BuChE inhibition; type: biochemical, equine
# Chain of huBuChE (P06276 29-602): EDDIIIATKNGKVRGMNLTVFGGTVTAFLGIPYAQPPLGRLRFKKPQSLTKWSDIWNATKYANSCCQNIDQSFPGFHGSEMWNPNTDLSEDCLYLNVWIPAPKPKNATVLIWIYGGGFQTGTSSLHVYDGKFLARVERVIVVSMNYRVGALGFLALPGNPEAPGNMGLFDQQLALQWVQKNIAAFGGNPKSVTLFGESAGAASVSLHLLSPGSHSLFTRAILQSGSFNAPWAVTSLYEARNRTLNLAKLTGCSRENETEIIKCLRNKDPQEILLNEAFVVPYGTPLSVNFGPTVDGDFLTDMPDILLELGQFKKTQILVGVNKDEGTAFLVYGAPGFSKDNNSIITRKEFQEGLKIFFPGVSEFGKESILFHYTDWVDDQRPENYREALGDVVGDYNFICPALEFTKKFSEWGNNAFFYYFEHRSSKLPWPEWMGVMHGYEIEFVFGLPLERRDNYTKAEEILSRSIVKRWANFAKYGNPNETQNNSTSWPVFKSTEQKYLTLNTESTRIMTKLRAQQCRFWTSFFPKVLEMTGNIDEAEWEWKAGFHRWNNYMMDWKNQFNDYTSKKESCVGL
Compound,IC50 [1] [nM],NO production [2] [%],IC50 [3] [nM],IC50 [4] [nM],also measured
"Cc1cc(=O)c(OCc2ccccc2)c(/C=C/c2cccc(OC(=O)N(c3ccccc3)c3ccccc3)c2)o1 [Compound 7e, (E)-3–(2-(3-(benzyloxy)-6-methyl-4-oxo-4H-pyran-2-yl)vinyl)phenyl diphenylcarbamate]",> 10000,106.16,> 20000,> 10000,
CN1C(C(=O)Nc2ccccn2)=C(O)c2ccccc2S1(=O)=O [Piroxicam],,,,,"Papp at 10 h, 25 μg/mL ([5]; PAMPA): 2.16 ± 0.04 ×10⁻⁶ cm/s; CNS (±) [5]: CNS +/-; Pe(ref.) [6]: 2.5e-06 cm/s"
"Cc1cc(=O)c(OCc2ccc(-c3ccccc3)cc2)c(/C=C/c2cccc(OC(=O)N3CCCCC3)c2)o1 [Compound 7o, (E)-3–(2-(3-([1,1′-biphenyl]-4-ylmethoxy)-6-methyl-4-oxo-4H-pyran-2-yl)vinyl)phenyl piperidine-1-carboxylate]",37.9 ± 5.37,,> 20000,19.2 ± 1.91,
CN1C(C(=O)Nc2ccccn2)=C(O)c2sccc2S1(=O)=O [Tenoxicam],,,,,"Papp at 10 h, 25 μg/mL ([5]; PAMPA): 0.35 ± 0.16 ×10⁻⁶ cm/s; CNS (±) [5]: CNS - (CNS -: (low BBB permeability), Pe (×10^−6 cm/s) < 2.03); Pe(ref.) [6]: 1e-07 cm/s"
Cn1c(=O)c2[nH]cnc2n(C)c1=O [Theophylline],,,,,Pe(ref.) [6]: 0.12 ± 0.01 ×10^−6 cm/s
"Cc1cc(=O)c(OCc2ccccc2)c(/C=C/c2cccc(OC(=O)N3CCN(Cc4ccccc4)CC3)c2)o1 [Compound 7j, (E)-3–(2-(3-(benzyloxy)-6-methyl-4-oxo-4H-pyran-2-yl)vinyl)phenyl 4-benzylpiperazine-1-carboxylate]",733 ± 59.8,,> 20000,31.8 ± 6.92,
"Cc1cc(=O)c(OCc2ccccc2)c(/C=C/c2cccc(OCC(=O)N3CCCCC3)c2)o1 [Compound 7k, (E)-3-(benzyloxy)-6-methyl-2–(3–(2-oxo-2-(piperidin-1-yl)ethoxy)styryl)-4H-pyran-4-one]",486 ± 46.2,64.59,> 20000,1430 ± 131,inhibition at 10 µM [2]: 35.4%
"Cc1cc(=O)c(OCc2ccccc2)c(/C=C/c2cccc(OC(=O)N(C)C)c2)o1 [Compound 7a, (E)-3–(2-(3-(benzyloxy)-6-methyl-4-oxo-4H-pyran-2-yl)vinyl)phenyl dimethylcarbamate]",99.4 ± 20.6,90.31,> 20000,24.6 ± 6.66,
"Cc1cc(=O)c(OCc2ccccc2)c(-c2ccc3ccc(OC(=O)N4CCCCC4)cc3c2)o1 [Compound 7q, 7–(3-(Benzyloxy)-6-methyl-4-oxo-4H-pyran-2-yl)naphthalen-2-yl piperidine-1-carboxylate]",230 ± 29.9,,> 20000,41.7 ± 11.3,
"CCN(C)C(=O)Oc1cccc([C@H](C)N(C)C)c1 [Rivastigmine, reference compound]",,,,,escape latency to the platform ([7]; 1 mg/kg oral once daily): 31.15 s; number of crossing the platform ([7]; 1 mg/kg oral once daily): 3.0 times
"C[C@]12CCC(=O)C=C1CC[C@@H]1[C@@H]2[C@@H](O)C[C@@]2(C)[C@H]1CC[C@]2(O)C(=O)CO [hydrocortisone, Hydrocortisone, reference compound]",,70.25,,,cell viability compared to the control group [8]: no significant differences
"CCN(CC)C(=O)Oc1cccc(/C=C/c2oc(C)cc(=O)c2OCc2ccccc2)c1 [Compound 7c, (E)-3–(2-(3-(benzyloxy)-6-methyl-4-oxo-4H-pyran-2-yl)vinyl)phenyl diethylcarbamate]",> 10000,,> 20000,652 ± 44.5,
"Cc1cc(=O)c(OCc2ccccc2)c(/C=C/c2cccc(OC(=O)N3CCCCC3)c2)o1 [Compound 7g, (E)-3–(2-(3-(benzyloxy)-6-methyl-4-oxo-4H-pyran-2-yl)vinyl)phenyl piperidine-1-carboxylate]",38.7 ± 2.08,90.09,> 20000,15.3 ± 0.75,
"Cc1cc(=O)c(OCc2ccccc2)c(/C=C/c2cccc(OC(=O)N(C(C)C)C(C)C)c2)o1 [Compound 7d, (E)-3–(2-(3-(benzyloxy)-6-methyl-4-oxo-4H-pyran-2-yl)vinyl)phenyl diisopropylcarbamate]",> 10000,80.01,> 20000,8530 ± 314,
"Cc1cc(=O)c(OCc2ccc3ccccc3c2)c(/C=C/c2cccc(OC(=O)N3CCCCC3)c2)o1 [Compound 7n, (E)-3–(2-(6-methyl-3-(naphthalen-2-ylmethoxy)-4-oxo-4H-pyran-2-yl)vinyl)phenyl piperidine-1-carboxylate]",39.4 ± 4.2,,> 20000,18.9 ± 5.98,
"O=C(Oc1cccc(/C=C/c2oc(CO)cc(=O)c2OCc2ccccc2)c1)N1CCCCC1 [Compound 7m, (E)-3–(2-(3-(benzyloxy)-6-(hydroxymethyl)-4-oxo-4H-pyran-2-yl)vinyl)phenyl piperidine-1-carboxylate]",16.5 ± 5.44,76.97,> 20000,5.22 ± 1.72,
"Cc1cc(=O)c(OCc2ccccc2)c(/C=C/c2cccc(OC(=O)N3CCC(Cc4ccccc4)CC3)c2)o1 [Compound 7i, (E)-3–(2-(3-(benzyloxy)-6-methyl-4-oxo-4H-pyran-2-yl)vinyl)phenyl 4-benzylpiperidine-1-carboxylate]",374 ± 6.45,,> 20000,75.2 ± 11.9,
"O=C(Oc1cccc(/C=C/c2occc(=O)c2OCc2ccccc2)c1)N1CCCCC1 [Compound 7l, (E)-3–(2-(3-(benzyloxy)-4-oxo-4H-pyran-2-yl)vinyl)phenyl piperidine-1-carboxylate]",6.93 ± 1.57,,> 20000,8.1 ± 2.75,
"Cc1cc(=O)c(OCc2ccccc2)c(/C=C/c2cccc(OC(=O)N3CCOCC3)c2)o1 [Compound 7h, (E)-3–(2-(3-(benzyloxy)-6-methyl-4-oxo-4H-pyran-2-yl)vinyl)phenyl morpholine-4-carboxylate]",> 10000,,> 20000,72.6 ± 9.39,
"Cc1cc(=O)c(OCc2ccccc2)c(/C=C/c2cccc(OC(=O)N3CCCC3)c2)o1 [Compound 7f, (E)-3–(2-(3-(benzyloxy)-6-methyl-4-oxo-4H-pyran-2-yl)vinyl)phenyl pyrrolidine-1-carboxylate]",156 ± 36,,> 20000,31.4 ± 5.97,
"Cc1cc(=O)c(OCc2ccccc2)c(CCc2cccc(OC(=O)N3CCCCC3)c2)o1 [Compound 7s, 3–(2-(3-(Benzyloxy)-6-methyl-4-oxo-4H-pyran-2-yl)ethyl)phenyl piperidine-1-carboxylate]",11 ± 1.7,77.77,> 20000,12.3 ± 3.12,
CCn1cc(C(=O)O)c(=O)c2cc(F)c(N3CCNCC3)cc21 [Norfloxacin],,,,,"Papp at 10 h, 25 μg/mL ([5]; PAMPA): 0.18 ± 0.03 ×10⁻⁶ cm/s; CNS (±) [5]: CNS - (CNS -: (low BBB permeability), Pe (×10^−6 cm/s) < 2.03); Pe(ref.) [6]: 1e-07 cm/s"
"COc1c(/C=C/c2cccc(OC(=O)N3CCCCC3)c2)oc(C)cc1=O [Compound 7p, (E)-3-(2-(3-methoxy-6-methyl-4-oxo-4H-pyran-2-yl)vinyl)phenyl piperidine-1-carboxylate]",9.12 ± 0.57,71.18,> 20000,4.68 ± 1.39,"BBB permeability in the PAMPA-BBB assay (in words) ([5]; PAMPA): high BBB permeability; Papp at 10 h, 25 μg/mL ([5]; PAMPA): 5.7 ± 0.43 ×10⁻⁶ cm/s; CNS (±) [5]: CNS + (CNS +: (high BBB permeability), Pe (×10^−6 cm/s) > 3.95); escape latency to the platform ([7]; 1 mg/kg oral once daily): 30.24 s; number of crossing the platform ([7]; 1 mg/kg oral once daily): 3.3 times; escape latency to the platform ([7]; 5 mg/kg oral once daily): 29.12 s; number of crossing the platform ([7]; 5 mg/kg oral once daily): 3.5 times; fold increase in inhibiting huBuChE ([1]; relative to compound 7g): 4 fold; inhibition at 10 µM [2]: 28.8%; abnormal behaviours or deaths after administration ([9]; 1000 mg/kg intragastric single dose, 14 d): no abnormal behaviours or deaths; pathological changes in heart, liver, spleen and brain (HE staining) ([9]; 1000 mg/kg, after 14 d, compared with control group): did not observe obvious pathological changes; LD50 at 14 d [10]: > 1000 mg/kg; Ki [11]: 3.15 nM; Kib (inhibition constant for the enzyme-substrate complex) ([11]; Cornish-Bowden plot): 3.84 nM; type of BuChE inhibition ([11]; Dixon and Cornish-Bowden plots): mix-type; also recorded: mixed-type inhibition; fold increase in inhibiting eqBuChE ([4]; relative to compound 7g): 3 fold"
"Cc1cc(=O)c(OCc2ccccc2)c(-c2ccc(-c3cccc(OC(=O)N4CCCCC4)c3)cc2)o1 [Compound 7r, 4′-(3-(Benzyloxy)-6-methyl-4-oxo-4H-pyran-2-yl)-[1,1′-biphenyl]-3-yl piperidine-1-carboxylate]",651 ± 157,,> 20000,94.3 ± 20.9,
"CCN(C)C(=O)Oc1cccc(/C=C/c2oc(C)cc(=O)c2OCc2ccccc2)c1 [Compound 7b, (E)-3–(2-(3-(benzyloxy)-6-methyl-4-oxo-4H-pyran-2-yl)vinyl)phenyl ethyl(methyl)carbamate]",631 ± 155,,> 20000,157 ± 13.3,
